Earlier results on three compounds are cited in US20160067252A1, “TRANSDERMAL DELIVERY OF SILDENAFIL AND OTHER PHOSPHODIESTERASE TYPE 5 INHIBITORS” (STRATEGIC SCIENCE & TECHNOLOGIES, LLC, priority 2013, published 2016).

As usually defined, the pKa is the negative logarithm of the acid dissociation constant. For the compound `CCCOc1ccc(S(=O)(=O)NCCC2CCCN2C)cc1-c1nc2c(CCC)nn(C)c2c(=O)[nH]1` (stereo not drawn) [udenafil], the pKa was 10.53. In the case of `CCCOc1ccc(S(=O)(=O)N2CCN(CCO)CC2)cc1-c1nc2c(CCC)cn(CC)c2c(=O)[nH]1` [mirodenafil], the pKa is on record as 6.0. Take `CN1CC(=O)N2[C@H](c3ccc4c(c3)OCO4)c3[nH]c4ccccc4c3C[C@@H]2C1=O` [tadalafil]: the pKa is given as 18.
